# Experimental data as given in US10112922B2, “Inhibitor of bruton's tyrosine kinase” (Centaurus BioPharma Co., Ltd., priority 2014, dated 2018).
# “Also recorded” adds a separate entry of the source. Read-outs that look alike come from different tables or passages of the source.
# Columns and labels:
# [1] = tested on: type II collagen-induced arthritis; assay: Type II collagen-induced arthritis mice model; type: in vivo, DBA/1 mice
# Method: The mice were randomly grouped according to their arthritis scores when the onset of arthritis was observed after 4 weeks. Compounds were then administered continuously for 4 weeks, during which the arthritis scores were evaluated for each mouse and the body weights thereof were measure every other day. The criteria for evaluating the arthritis score were as follows:
# 1=erythema and mild swelling at ankle joint;
# 2=erythema and mild swelling from ankle joint to phalangeal joint or metacarpal joint;
# 3=erythema and moderate swelling from ankle joint to phalangeal joint or metacarpal joint;
# 4=erythema and severe swelling or ankylosis on whole foot including from ankle joint to phalangeal joint.
# Each paw was scored according to the above criteria, and the highest score was 16.
# Btk kinase = Btk kinase (Homo sapiens (Human), UniProt Q06187); assay: Btk kinase enzymatic activity assay (HTRF); type: biochemical
# Method: The half inhibition concentrations (IC50 values) of the compounds disclosed herein on Btk were determined at both enzymatic level and cellular level: the ability of the compounds to inhibit the activity of Btk kinase was determined in an enzymtic activity assay, and the inhibitory effect of the compounds on BCR-induced calcium flux in cells was determined in a cellular function assay.
# (§1) The compounds were gradiently diluted 3 folds starting from 1 mM with 100% DMSO (totally 11 concentrations). 4 μL of each sample with a different concentration was added into 96 μL of reaction buffer (50 mM HEPES, pH 7.4, 10 mM MgCl2, 1 mM EGTA, 0.01% Tween-20, 0.005% BAS, 2 mM DTT). […] The mixture was centrifuged to mix well, followed by adding 2.5 μL of a mixture of ATP (final concentration designated as Km) and TK petide (HTRF® KinEASE™-TK, Cisbio) to initiate the reaction (total reaction volume being 10 μL). […] The enzyme activity for each compound was determined at 11 concentrations, and IC50 values were obtained by GraFit Software 6.0 (Erithacus Software).
# ITK kinase = ITK kinase (Homo sapiens (Human), UniProt Q08881); assay: ITK kinase enzymatic assay (same HTRF method as BTK); type: biochemical
# Method: as §1
# In vitro activity in inhibiting ITK kinase was determined similar to that in respect of BTK kinase.
# OCI-LY-10 cells = assay: Efficacy in subcutaneously xenografted tumor model in mice; type: in vivo, CB-17 SCID mice; details: 100 mg/kg PO QD
# Method: SPF grade female CB-17 SCID mice (4-5 week) were used. 0.1 ml of OCI-LY-10 cells suspended in serum-free medium (containing 5×10^6 cells, 30% Matrigel) were injected subcutaneously in both the left and the right flanks of mice. Mice were grouped and numbered when the average tumor volumes were more than 100 mm3, and the body weights and tumor volumes were determined. The mice were randomly grouped according to tumor volumes, and appropriate adjustments were made so that the average body weight in each group is on the same level. Animals were dosed orally on the same day when they were grouped, and body weights and tumor volumes were measured twice a week. Relative tumor growth (T/C) and Tumor growth inhibition (TGI) were the major test indeces.
# The equation for calculating the tumor volume is V=0.5×a×b^2, wherein v is the tumor volume, a and b are the length and the width of the tumor, respectively. The relative tumor volume (RTV) was calculated according to the tumor volume with the equation RTV=Vt/V0, wherein V0 was the tumor volume at the time when the animals were grouped, and Vt was the tumor volume at indicated time points. The equation for calculating the relative tumor proliferation rate was T/C (%)=TRTV/CRTV*100%. (TRTV was the RTV of treated group, and CRTV was the RTV of control group).
# The equation for calculating the tumor growth inhibition rate was TGI (%)=(1−(tumor volume of the treated group−tumor volume of the treated group at the time when the animals were grouped)/(tumor volume of the control group−tumor volume of the control group at the time when the animals were grouped))*100%.
# [2] = Toxicity test in mice (7-day oral administration); type: in vivo, CD-1 (ICR) mice; details: for Average body weight of mice / Changes (%) in mice body weight in treated group over control group: 1000 mg/kg oral once a day
# Excerpt: Body weights and conditions of mice were monitored every day, during which all mice were not fasting.
# [3] = 1000 mg/kg oral once a day for 7 days
# Sequence of Btk kinase (Q06187 whole entry): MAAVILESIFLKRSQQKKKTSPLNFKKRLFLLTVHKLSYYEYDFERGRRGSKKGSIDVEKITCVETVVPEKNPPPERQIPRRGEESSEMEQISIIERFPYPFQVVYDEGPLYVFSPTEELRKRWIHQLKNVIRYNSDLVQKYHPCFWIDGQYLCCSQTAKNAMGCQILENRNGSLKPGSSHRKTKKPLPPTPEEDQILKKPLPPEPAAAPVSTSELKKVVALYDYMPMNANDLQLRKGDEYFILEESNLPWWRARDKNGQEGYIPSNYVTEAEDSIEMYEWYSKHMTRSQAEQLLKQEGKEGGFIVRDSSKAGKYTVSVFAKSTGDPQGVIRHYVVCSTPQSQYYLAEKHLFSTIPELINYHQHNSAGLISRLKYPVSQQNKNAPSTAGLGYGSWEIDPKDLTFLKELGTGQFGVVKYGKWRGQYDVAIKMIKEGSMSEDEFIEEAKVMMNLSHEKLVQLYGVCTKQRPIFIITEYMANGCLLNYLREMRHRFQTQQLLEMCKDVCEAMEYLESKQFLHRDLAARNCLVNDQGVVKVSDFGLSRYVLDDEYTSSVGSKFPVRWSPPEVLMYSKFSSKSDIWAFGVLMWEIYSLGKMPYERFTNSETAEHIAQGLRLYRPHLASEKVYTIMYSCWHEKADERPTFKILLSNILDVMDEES
# Sequence of ITK kinase (Q08881 whole entry): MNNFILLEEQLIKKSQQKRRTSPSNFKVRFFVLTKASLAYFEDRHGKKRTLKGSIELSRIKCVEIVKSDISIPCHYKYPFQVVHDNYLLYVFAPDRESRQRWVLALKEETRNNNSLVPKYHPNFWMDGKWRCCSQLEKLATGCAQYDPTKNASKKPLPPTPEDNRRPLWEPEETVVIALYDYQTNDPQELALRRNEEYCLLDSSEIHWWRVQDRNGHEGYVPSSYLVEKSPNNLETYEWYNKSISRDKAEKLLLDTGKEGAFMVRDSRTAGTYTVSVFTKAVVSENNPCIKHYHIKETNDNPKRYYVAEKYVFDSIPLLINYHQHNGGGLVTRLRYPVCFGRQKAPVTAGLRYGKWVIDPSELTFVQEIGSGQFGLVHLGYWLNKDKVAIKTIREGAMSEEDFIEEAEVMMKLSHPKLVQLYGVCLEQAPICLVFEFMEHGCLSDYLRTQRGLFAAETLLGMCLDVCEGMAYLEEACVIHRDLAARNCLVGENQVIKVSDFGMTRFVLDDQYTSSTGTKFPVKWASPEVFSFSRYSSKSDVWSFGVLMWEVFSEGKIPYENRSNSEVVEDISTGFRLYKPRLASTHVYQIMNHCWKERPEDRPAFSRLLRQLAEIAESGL
smiles,measurement,setting,value
"COC/C=C/C(=O)N1CC[C@@H](n2nc(-c3ccc(Oc4ccccc4)cc3)c(C(N)=O)c2N)C1 [Example 9, (R,E)-5-amino-1-(1-(4-methoxybut-2-enoyl)pyrrolidin-3-yl)-3-(4-phenoxyphenyl)-1H-pyrazole-4-carboxamide]",therapeutic effect on arthritis at very low dosage,[1]; 0.3 mg/kg,good therapeutic effect; also recorded: comparable to that of 3 mg/kg of PCI-32765
same,arthritis (arthritis score) after administration,"[1]; administered continuously for 4 weeks, FIG. 1",significantly alleviated
same,IC50,"Btk kinase; Table 1, read-out: Btk IC50",< 100 nM
same,IC50,"Btk kinase; Table 5, kinase selectivity test, read-out: IC50 (nM) BTK",1.9 nM
same,selectivity on BTK vs ITK,Btk kinase; calculated from IC50 values,more than 1000 folds
same,IC50,"ITK kinase; Table 1, read-out: Itk IC50",> 1000 nM
same,IC50,"ITK kinase; Table 5, kinase selectivity test, read-out: IC50 (nM) ITK",> 1000 nM
same,TGI (%) Day 3,OCI-LY-10 cells; Day 3,45.79%
same,TGI (%) Day 8,OCI-LY-10 cells; Day 8,39.37%
same,TGI (%) Day 11,OCI-LY-10 cells; Day 11,43.05%
same,difference in body weight change from control group,[2]; [3],< 2%
same,toxicity,[2]; [3],no toxicity
same,Average body weight of mice,[2]; Day 1,24.4 g
same,Changes (%) in mice body weight in treated group over control group,[2]; Day 1,100.0%
same,Average body weight of mice,[2]; Day 2,24.6 g
same,Changes (%) in mice body weight in treated group over control group,[2]; Day 2,100.0%
same,Average body weight of mice,[2]; Day 3,25.1 g
same,Changes (%) in mice body weight in treated group over control group,[2]; Day 3,100.3%
same,Average body weight of mice,[2]; Day 4,25.6 g
same,Changes (%) in mice body weight in treated group over control group,[2]; Day 4,101.1%
same,Average body weight of mice,[2]; Day 5,26.4 g
same,Changes (%) in mice body weight in treated group over control group,[2]; Day 5,101.8%
same,Average body weight of mice,[2]; Day 6,26.9 g
same,Changes (%) in mice body weight in treated group over control group,[2]; Day 6,101.7%
same,Average body weight of mice,[2]; Day 7,27.2 g
same,Changes (%) in mice body weight in treated group over control group,[2]; Day 7,101.7%
